Measurements: ChEMBL document CHEMBL5042530, “Discovery of Novel Pyridine-Dimethyl-Phenyl-DAPY Hybrids by Molecular Fusing of Methyl-Pyrimidine-DAPYs and Difluoro-Pyridinyl-DAPYs: Improving the Druggability toward High Inhibitory Activity, Solubility, Safety, and PK” (J Med Chem, 2022)

Assays:
[1] = tested on: Human immunodeficiency virus 1; assay: Antiviral activity against wild type HIV-1 IIIB infected in human MT4 cells assessed as protection against virus-induced cytotoxicity incubated for 5 days by MTT assay; format: functional, organism-based; conditions: Human immunodeficiency virus 1, IIIB, MT4, 120 h
[2] = target: Human immunodeficiency virus type 1 reverse transcriptase (Human immunodeficiency virus 1, UniProt Q72547); assay: Inhibition of recombinant wild type p66/p51 HIV1 reverse transcriptase incubated for 40 mins by picogreen dye-based spectrofluorometric analysis
[3] = tested on: Human immunodeficiency virus 1; assay: Antiviral activity against HIV-1 harboring K103N mutant infected in human MT4 cells assessed as protection against virus-induced cytotoxicity incubated for 5 days by MTT assay; format: functional, organism-based; conditions: Human immunodeficiency virus 1, MT4, 120 h
[4] = Cytotoxicity against human MT4 cells assessed as reduction in cell viability measured after 5 days by MTT assay; format: toxicity, cell-based; conditions: time 5 day
[5] = tested on: Human immunodeficiency virus 1; assay: Antiviral activity against HIV-1 harboring RT L100I mutant infected in human MT4 cells assessed as protection against virus-induced cytotoxicity incubated for 5 days by MTT assay; format: functional, organism-based; conditions: Human immunodeficiency virus 1, MT4, 120 h
[6] = tested on: Human immunodeficiency virus 1; assay: Antiviral activity against HIV-1 harboring E138K mutant infected in human MT4 cells assessed as protection against virus-induced cytotoxicity incubated for 5 days by MTT assay; format: functional, organism-based; conditions: Human immunodeficiency virus 1, MT4, 120 h
[7] = Selectivity index, ratio of CC50 for cytotoxicity against human MT4 cells to EC50 for antiviral activity against HIV-1 IIIB infected in human MT4 cells; format: toxicity, cell-based; conditions: read-out: Ratio CC50/EC50
[8] = tested on: Human immunodeficiency virus 1; assay: Antiviral activity against HIV-1 harboring Y181C mutant infected in human MT4 cells assessed as protection against virus-induced cytotoxicity incubated for 5 days by MTT assay; format: functional, organism-based; conditions: Human immunodeficiency virus 1, MT4, 120 h
[9] = tested on: Human immunodeficiency virus 1; assay: Antiviral activity against HIV-1 harboring RES056 mutant infected in human MT4 cells assessed as protection against virus-induced cytotoxicity incubated for 5 days by MTT assay; format: functional, organism-based; conditions: Human immunodeficiency virus 1, MT4, 120 h
[10] = tested on: Human immunodeficiency virus 1; assay: Antiviral activity against HIV-1 harboring Y188L mutant infected in human MT4 cells assessed as protection against virus-induced cytotoxicity incubated for 5 days by MTT assay; format: functional, organism-based; conditions: Human immunodeficiency virus 1, MT4, 120 h
[11] = tested on: Human immunodeficiency virus 1; assay: Antiviral activity against HIV-1 harboring F227L/V106A double mutant infected in human MT4 cells assessed as protection against virus-induced cytotoxicity incubated for 5 days by MTT assay; format: functional, organism-based; conditions: Human immunodeficiency virus 1, MT4, 120 h

Structure (SMILES)	EC50 [1] [nM]	IC50 [2] [nM]	EC50 [3] [nM]	CC50 at 120 h [4] [nM]	EC50 [5] [nM]	EC50 [6] [nM]	selectivity ratio [7]	EC50 [8] [nM]	EC50 [9] [nM]	EC50 [10] [nM]	EC50 [11] [nM]
Cc1ncc(-c2cc(C)c(Nc3ccnc(Nc4ccc(C#N)cc4)n3)c(C)c2)cn1	1.6	46.7	7.8	3900	68	24	2440	23	641	–	–
Cc1cc(-c2cccc3cc[nH]c23)cc(C)c1Nc1ccnc(Nc2ccc(C#N)cc2)n1	23	60.5	271	1000	–	124	44	–	–	–	–
Cc1cc(-c2ccnc3ccccc23)cc(C)c1Nc1ccnc(Nc2ccc(C#N)cc2)n1	5.7	40.7	20	3500	75	36	618	30	274	1340	1670
Cc1cnc(Nc2ccc(C#N)cc2)nc1Nc1c(F)cc(-c2ccco2)cc1F	4.2	12	33	8100	114	11.2	1920	187	–	856	–
Cc1cnc(Nc2ccc(C#N)cc2)nc1Nc1c(F)cc(-c2ccsc2)cc1F	7.1	12	185	261000	279	49.5	36700	306	–	1290	–
Cc1cc(-c2ccco2)cc(C)c1Nc1ccnc(Nc2ccc(C#N)cc2)n1	5.1	38.1	10	1700	51	14	335	28	–	150	–
Cc1cnc(Nc2ccc(C#N)cc2)nc1Nc1c(F)cc(-c2cncc(C#N)c2)cc1F	24	271	135	50000	1880	86	2080	1410	–	> 2000	–
Cc1cnc(Nc2ccc(C#N)cc2)nc1Nc1c(F)cc(-c2ccoc2)cc1F	5.7	8.4	48	4200	228	12.3	742	150	–	1340	–
Cc1cnc(Nc2ccc(C#N)cc2)nc1Nc1c(F)cc(-c2cncc(C(F)(F)F)c2)cc1F	201	857	631	8200	> 2000	482	41	> 2000	–	> 2000	–
Cc1cnc(Nc2ccc(C#N)cc2)nc1Nc1c(F)cc(-c2cc(F)nc(F)c2)cc1F	11	55	117	103000	1730	66	9570	285	–	> 2000	–
Cc1cc(-c2ccc3cc[nH]c3c2)cc(C)c1Nc1ccnc(Nc2ccc(C#N)cc2)n1	21	53.4	209	5800	577	139	275	497	–	–	–
Cc1cc(-c2cc(C)c(Nc3ccnc(Nc4ccc(C#N)cc4)n3)c(C)c2)ccn1	1.7	35.7	5.9	4900	44	11	2880	17	225	229	562
Cc1cc(-c2cc(F)nc(F)c2)cc(C)c1Nc1ccnc(Nc2ccc(C#N)cc2)n1	3.6	45.6	13	6300	91	45	1740	47	620	–	859
Cc1csc(-c2cc(C)c(Nc3ccnc(Nc4ccc(C#N)cc4)n3)c(C)c2)c1	11	56	50	34000	231	43	3060	116	–	941	–
Cc1ccc(-c2cc(C)c(Nc3ccnc(Nc4ccc(C#N)cc4)n3)c(C)c2)s1	11	43.8	57	28000	249	47	2570	179	–	1280	–
